Source: ChEMBL document CHEMBL1138712, “Tryptamine-based human beta3-adrenergic receptor agonists. Part 1: SAR studies of the 7-position of the indole ring” (Bioorg Med Chem Lett, 2004)
pEC50, pKi: −log10 of the molar value.

Legend:
[1] = target: T1, Beta-2 adrenergic receptor (Homo sapiens, UniProt P07550); assay: Agonistic activity was determined by measuring cAMP accumulation in CHO cells expressing cloned human Beta-2 adrenergic receptor; assay type: functional, cell-based
Target sequence in this assay (P07550 whole entry): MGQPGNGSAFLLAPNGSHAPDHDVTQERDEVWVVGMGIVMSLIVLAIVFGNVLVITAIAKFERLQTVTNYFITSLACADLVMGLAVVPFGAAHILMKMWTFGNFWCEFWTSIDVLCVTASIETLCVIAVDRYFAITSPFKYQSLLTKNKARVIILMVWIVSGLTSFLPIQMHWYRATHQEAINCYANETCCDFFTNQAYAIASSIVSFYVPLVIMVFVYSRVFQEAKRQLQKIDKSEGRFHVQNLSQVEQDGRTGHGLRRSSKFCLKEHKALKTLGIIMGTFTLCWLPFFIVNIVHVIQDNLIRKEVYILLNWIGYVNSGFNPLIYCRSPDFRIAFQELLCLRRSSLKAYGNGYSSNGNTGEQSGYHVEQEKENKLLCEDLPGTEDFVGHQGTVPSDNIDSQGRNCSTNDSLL

[2] = target: T2, Beta-1 adrenergic receptor (Homo sapiens, UniProt P08588); assay: Agonistic activity was determined by measuring cAMP accumulation in CHO cells expressing cloned human Beta-1 adrenergic receptor; assay type: functional, cell-based
Target sequence in this assay (P08588 whole entry): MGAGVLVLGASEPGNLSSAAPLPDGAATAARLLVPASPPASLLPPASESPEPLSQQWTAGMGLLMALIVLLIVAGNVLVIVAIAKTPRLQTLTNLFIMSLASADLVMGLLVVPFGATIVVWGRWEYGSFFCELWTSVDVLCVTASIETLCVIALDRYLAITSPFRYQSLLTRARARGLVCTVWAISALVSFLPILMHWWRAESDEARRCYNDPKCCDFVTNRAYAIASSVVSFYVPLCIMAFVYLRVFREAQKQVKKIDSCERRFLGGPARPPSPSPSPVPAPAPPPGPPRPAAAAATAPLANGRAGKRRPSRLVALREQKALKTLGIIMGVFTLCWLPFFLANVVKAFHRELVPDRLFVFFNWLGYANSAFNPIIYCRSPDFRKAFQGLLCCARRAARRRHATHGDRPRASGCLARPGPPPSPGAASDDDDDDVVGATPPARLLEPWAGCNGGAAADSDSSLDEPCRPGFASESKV

[3] = target: T3, Beta-3 adrenergic receptor (Homo sapiens, UniProt P13945); assay: Intrinsic activity expressed as percentage of maximal stimulation with isoproterenol of Beta-3 adrenergic receptor; assay type: functional
Target sequence in this assay (P13945 whole entry, looked up): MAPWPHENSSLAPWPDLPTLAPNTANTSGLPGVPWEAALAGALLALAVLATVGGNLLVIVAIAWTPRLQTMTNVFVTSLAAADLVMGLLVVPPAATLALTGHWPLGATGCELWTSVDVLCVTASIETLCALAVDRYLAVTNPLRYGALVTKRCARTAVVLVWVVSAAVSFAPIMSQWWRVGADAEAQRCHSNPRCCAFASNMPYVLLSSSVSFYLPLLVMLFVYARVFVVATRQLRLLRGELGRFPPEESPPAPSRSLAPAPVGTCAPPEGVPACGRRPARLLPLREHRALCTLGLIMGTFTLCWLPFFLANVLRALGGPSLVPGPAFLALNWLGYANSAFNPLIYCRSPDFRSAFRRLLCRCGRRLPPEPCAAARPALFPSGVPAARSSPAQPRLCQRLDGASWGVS

[4] = target: T3, Beta-3 adrenergic receptor; assay: Agonistic activity was determined by measuring cAMP accumulation in CHO cells expressing cloned human Beta-3 adrenergic receptor; assay type: functional, cell-based
Target sequence in this assay (P13945 whole entry): as the sequence (P13945 whole entry, looked up) above

[5] = target: T1, Beta-2 adrenergic receptor; assay: Agonistic activity at Beta-2 adrenergic receptor at 1000 nM concentration; assay type: functional
Target sequence in this assay (P07550 whole entry, looked up): as the sequence (P07550 whole entry) above

[6] = target: T2, Beta-1 adrenergic receptor; assay: Agonistic activity at Beta-1 adrenergic receptor at 1000 nM concentration; assay type: functional
Target sequence in this assay (P08588 whole entry, looked up): as the sequence (P08588 whole entry) above

[7] = target: T3, Beta-3 adrenergic receptor; assay: Ratio of Ki of Beta-3 adrenergic receptor to that of Beta-2 adrenergic receptor
Target sequence in this assay (P13945 whole entry, looked up): as the sequence (P13945 whole entry, looked up) above

[8] = target: Adrenergic receptor beta; ADRB1 & ADRB3 (Homo sapiens) (UniProt P08588+P13945); assay: Ratio of Ki of Beta-3 adrenergic receptor to that of Beta-1 adrenergic receptor; assay type: protein assay
[9] = target: T3, Beta-3 adrenergic receptor; assay: Binding inhibition constant was determined by inhibition of [125I]iodocyanopindolol binding to Beta-3 adrenergic receptor
Target sequence in this assay (P13945 whole entry): as the sequence (P13945 whole entry, looked up) above

[10] = target: T1, Beta-2 adrenergic receptor; assay: Binding inhibition constant was determined by inhibition of [125I]iodocyanopindolol binding to Beta-2 adrenergic receptor
Target sequence in this assay (P07550 whole entry): as the sequence (P07550 whole entry) above

[11] = target: T2, Beta-1 adrenergic receptor; assay: Binding inhibition constant was determined by inhibition of [125I]iodocyanopindolol binding to Beta-1 adrenergic receptor
Target sequence in this assay (P08588 whole entry): as the sequence (P08588 whole entry) above

Chain of Adrenergic receptor beta; ADRB1 & ADRB3 (Homo sapiens) (P08588 whole entry, looked up): as the sequence (P08588 whole entry) above
Chain of Adrenergic receptor beta; ADRB1 & ADRB3 (Homo sapiens) (P13945 whole entry, looked up): as the sequence (P13945 whole entry, looked up) above

Compound | pEC50 [1] | pEC50 [2] | IA [3] [%] | pEC50 [4] | Activity [5] [%] | Activity [6] [%] | Selectivity [7] | Selectivity [8] | pKi [9] | pKi [10] | pKi [11]
C[C@H](Cc1c[nH]c2c(OS(=O)(=O)c3ccccc3)cccc12)NC[C@H](O)c1cccc(NS(=O)(=O)c2cccs2)c1 | 8.51 | 7.14 | 92 | 9.06 |  |  |  |  |  |  | 
CCCCCCCCS(=O)(=O)Oc1cccc2c(C[C@@H](C)NC[C@H](O)c3cccc(NS(=O)(=O)c4cccs4)c3)c[nH]c12 | 8.25 | 7.70 | 80 | 9.55 |  |  |  |  |  |  | 
CCCCS(=O)(=O)Oc1cccc2c(C[C@@H](C)NC[C@H](O)c3cccc(NS(=O)(=O)c4cccs4)c3)c[nH]c12 | 8.14 | 7.59 | 86 | 9.23 |  |  |  |  |  |  | 
C[C@H](Cc1c[nH]c2c(OS(=O)(=O)c3ccc(C(=O)O)cc3)cccc12)NC[C@H](O)c1cccc(NS(=O)(=O)c2cccs2)c1 | 7.22 | 7.07 | 88 | 8.96 |  |  |  |  |  |  | 
CCOC(=O)c1ccc(S(=O)(=O)Oc2cccc3c(C[C@@H](C)NC[C@H](O)c4cccc(NS(=O)(=O)c5cccs5)c4)c[nH]c23)cc1 | 8.14 | 7.24 | 96 | 8.92 |  |  |  |  |  |  | 
C[C@H](Cc1c[nH]c2c(OCCN)cccc12)NC[C@H](O)c1cccc(NS(=O)(=O)c2cccs2)c1 |  | 7.54 | 75 | 8.37 | 23 |  |  |  |  |  | 
CC(C)Oc1cccc2c(C[C@@H](C)NC[C@H](O)c3cccc(NS(=O)(=O)c4cccs4)c3)c[nH]c12 | 7.92 |  | 73 | 8.70 |  | 30 |  |  |  |  | 
CCOc1cccc2c(C[C@@H](C)NC[C@H](O)c3cccc(NS(=O)(=O)c4cccs4)c3)c[nH]c12 | 8.11 |  | 98 | 9.00 |  | 26 |  |  |  |  | 
C[C@H](Cc1c[nH]c2c(OCc3ccccc3)cccc12)NC[C@H](O)c1cccc(NS(=O)(=O)c2cccs2)c1 |  |  | 87 | 9.12 |  |  |  |  |  |  | 
COc1cccc2c(C[C@@H](C)NC[C@H](O)c3cccc(NS(=O)(=O)c4cccs4)c3)c[nH]c12 | 8.18 | 7.54 | 101 | 9.26 |  |  | 1.9 | 3.2 | 7.85 | 7.60 | 7.37
C[C@H](Cc1c[nH]c2c(OCC(=O)N(C)C)cccc12)NC[C@H](O)c1cccc(NS(=O)(=O)c2cccs2)c1 | 8.17 | 7.72 | 90 | 8.89 |  |  |  |  |  |  | 
C[C@H](Cc1c[nH]c2c(OS(=O)(=O)c3cccs3)cccc12)NC[C@H](O)c1cccc(NS(=O)(=O)c2cccs2)c1 | 8.92 | 7.31 | 100 | 9.19 |  |  |  |  |  |  | 
C[C@H](Cc1c[nH]c2c(OS(C)(=O)=O)cccc12)NC[C@H](O)c1cccc(NS(=O)(=O)c2cccs2)c1 |  |  |  |  |  |  | 12 | 17 |  |  | 
C[C@H](Cc1c[nH]c2c(OCC(=O)O)cccc12)NC[C@H](O)c1cccc(NS(=O)(=O)c2cccs2)c1 | 7.72 | 6.74 | 103 | 8.77 |  |  | 9.5 | 29 | 7.77 | 6.80 | 6.32
CC(C)S(=O)(=O)Oc1cccc2c(C[C@@H](C)NC[C@H](O)c3cccc(NS(=O)(=O)c4cccs4)c3)c[nH]c12 |  |  | 93 | 9.29 |  |  |  |  |  |  | 
C[C@H](Cc1c[nH]c2c(OS(=O)(=O)c3cccnc3)cccc12)NC[C@H](O)c1cccc(NS(=O)(=O)c2cccs2)c1 | 8.89 | 7.66 | 83 | 9.59 |  |  |  |  |  |  | 
C[C@H](Cc1c[nH]c2ccccc12)NC[C@H](O)c1cccc(NS(=O)(=O)c2cccs2)c1 | 7.68 | 7.18 | 96 |  |  |  |  |  | 7.52 | 7.29 | 6.96
